# From patent US9290544B2, “Methods for making and using molecular switches involving circular permutation” (priority 2004, dated 2016)
# What was measured:
# [1] = Hydrolysis of carbenicillin by RG-200-13 with and without 5 mM maltose; assay type: biochemical; settings: substrate carbenicillin 1 mM; pH 7.0, 22° C.
# Method: A 6×His tag was added to the C-terminus of RG-200-13 (also termed “RG13” in Examples below) and the fusion was purified as previously described (Guntas and Ostermeier 2004). The protein was purified to approximately 60% purity. The kinetic constants and binding constants were determined from Eadie-Hofstee plots and Eadie plot equivalents, respectively, using a spectrophotometric assay for nitrocefin hydrolysis. Initial rates for nitrocefin hydrolysis were determined from absorbance at 486 nm monitored as a function of time. The enzyme was incubated at the assay temperature in the absence or presence of saccharide for four minutes prior to performing the assay. All assays contained 100 mM sodium phosphate buffer, pH 7.0. The dissociation constant for maltose was determined using change in velocity of nitrocefin hydrolysis as a signal.
# Maltose binding had the largest effect on cephalothin (of the substrates tested), with the velocity of cephalothin hydrolysis being 32-fold higher in the presence of maltose than in its absence.
# [2] = Dissociation constant for maltose from initial rate of carbenicillin hydrolysis; assay type: binding; settings: 1.5 mM carbenicillin, 25° C., read-out: Kd maltose, Saturating Carbenicillin, Enzymatic assay
substance,measurement,setting,value
RG13: MBP-BLA fusion switch MBP[1-316]-BLA[227-286]-GSGGG-BLA[24-226]-S-MBP[319-370]; SEQ ID NO: 61,Approximate fold increase in velocity of carbenicillin hydrolysis in the presence of 5 mM maltose,[1],~4 fold
same,Kd,[2],900 ± 100 nM
